Test results from patent US7176231B2, “Aryl-containing 5-acylindolinones, the preparation thereof and their use as medicaments” (Boehringer Ingelheim International GmbH, priority 2004, dated 2007).

Experiments:
db/db mice = test: Oral glucose tolerance test; format: in vivo; conditions: fasted db/db mice, 2 g/kg glucose orally 30 minutes after substance
Method: Fasted db/db mice 7 to 9 weeks old (Janvier, France) are weighed and blood is taken from the tip of the tail. This blood is used for the first measurement of glucose on the basis of which the animals are randomised and divided into groups. The test substance to be tested may be given either orally or i.p. as a suspension in 0.5% Natrosol. 30 minutes after the administration of the substance the animals are given orally 2 g/kg glucose in a volume of 0.1 ml/100 g body weight dissolved in NaCl solution. Subsequently, the glucose values are determined from the tail blood using a glucometer (Ultra OneTouch, Lifescan) at specific time intervals [30, 60, 120 and 180 minutes after oral administration of the glucose].

mice = test: Tolerability after oral administration to mice; format: in vivo; conditions: oral administration of 10 mg/kg to mice

CC(=O)c1ccc2c(c1)/C(=C(/Nc1ccc(CN(C)C)cc1)c1ccc3c(c1)OCCO3)C(=O)N2 [Example 1.051, 5-acetyl-3-{[4-(dimethylamino-methyl)-phenylamino]-(2,3-dihydro-benzo[1,4]-dioxin-6-yl)-methylidene}-2-indolinone]
activity in the oral glucose tolerance test (db/db mice): significant activity | changes in the animals' behaviour (mice): no changes were observed
